Paper PMC6337391 (Molecules, 2019)

Molecular target: T1, Aβ40 (Homo sapiens, UniProt P05067)
T1 construct: Amyloid peptide Aβ40 was purchased from AnaSpec Co; purchased AnaSpec Co. (Fremont, CA, USA)
Assay: Circular dichroism study of Aβ40 aggregation
Conditions: 50 µM compound, 50 µM Aβ40 (1:1), PB pH 7.33, 33 °C, 40 days
Text: The pathogenesis of Alzheimer’s disease (AD) is widely associated with the aggregation of β-amyloid peptide (Aβ) either to soluble oligomers or to higher-order polymeric insoluble fibrils. As a result, one of the main therapeutic strategies against AD targets the aggregation process of Aβ, and a great number of small molecules are being investigated for their potential to intervene in the assembly of Aβ and inhibit its neurotoxicity in vitro and in vivo [64]. Circular dichroism (CD) spectroscopy is commonly used to probe the secondary structure of polypeptides and to monitor conformational changes and interactions of polypeptides with small molecules. The typical aggregation process of Aβ produces characteristic CD spectra over time that reflect the conformational changes that occur as the random coil monomers are converted into β-sheet oligomers, and then gradually to larger β-sheet formations that finally produce amyloid fibrils. CD is, therefore, a valuable tool to monitor the aggregation process of Aβ and to study the effect of potential aggregation inhibitors. To further investigate the pleiotropic effects of chalcones against AD, selected compounds from our library, were subjected to CD studies in order to evaluate their potential to interfere with the aggregation process of Aβ40. […] The aggregation spectra of plain Aβ40 show at day 0 the typical random coil peak (negative maximum at 198 nm) the intensity of which gradually decreases as the peptide forms β–sheet structures (negative maximum at 222 nm, day 15) that further aggregate to higher order polymeric fibrils. The precipitation of the insoluble fibrils from solution eventually results in the loss of CD signal (days 30 and 40). […] In view of the above results, chalcone derivatives bearing a three-carbon chain linker, specifically c2, c3, and c4, were subsequently studied in order to assess the effect of further derivatization and the presence of the chalcone moiety in the structure. […] Overall, our CD study identified three new structures capable of interfering with the aggregation process of Aβ, out of which compounds c2 and c4 display additional protective actions against AD and add to the pleiotropic profile of the chalcone derivatives.
Preparation of Aβ stocks and solutions. Amyloid peptide Aβ40 was purchased from AnaSpec Co. (Fremont, CA, USA) (>95% pure). Aβ40 was gently dissolved without vortexing in Type 1 (Milli-Q) water to a final concentration of 100 μM. Solutions of Aβ in phosphate buffer (PB, 10 mM, pH 7.33) were prepared by adding equal volumes of PB to aliquots of the aqueous solution stock to achieve final concentration of 50 µM. The proper amount of the compounds c2, c3, c4, di, dii, and dvi were added to the Aβ solutions to achieve concentration of 50 μM. The secondary structural changes of Aβ were monitored for 40 days by CD. During this period, the amyloid peptide solutions were kept at an incubator at 33 °C under quiescent conditions.
Circular dichroism measurements. CD spectra were recorded on a JASCO J-715 spectropolarimeter (Jasco Co., Tokyo, Japan), at 33 °C in the range of 190–260 nm with a 1 mm path length quartz cuvette. Each spectrum was the average of three scans at a speed of 100 nm·min^−1 and a resolution of 0.5 nm. Three independent experiments were run for each condition and in each case solutions of plain Aβ were run as control (Figure 8). The analysis of the CD data was performed using the OriginPro 9 program.

T1 sequence (P05067 672-711 limits assumed): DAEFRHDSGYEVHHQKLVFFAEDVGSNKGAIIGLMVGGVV

Structure (SMILES)	effect on the aggregation process of Aβ40 (CD spectra)
CC(=O)c1ccc(OCCCCCCCOc2ccc(C(C)=O)cc2)cc1 [dvi, 1,1′-((heptane-1,7-diylbis(oxy))bis-(4,1-phenylene)) diethanone]	did not significantly change the fibrillization course of Aβ40
CC(=O)c1ccc(OCCOc2ccc(C(C)=O)cc2)cc1 [di, 1,1′-((ethane-1,2-diylbis(oxy))bis(4,1-phenylene))diethanone]	did not significantly change the fibrillization course of Aβ40
